Assay results: US11084789B2, “Mast-cell modulators and uses thereof” (Beth Israel Deaconess Medical Center, Inc., priority 2016, dated 2021)
Entries after “also recorded” stand apart in the source; their conditions may differ.

Key:
[1] = tested on: wounds of diabetic (STZ) C57B16 mice; experiment: Wound healing in diabetic mice; assay type: in vivo; conditions: DM mice
Text: (§1) C57B16 mice were made diabetic (DM) using Streptozotocin (STZ) and rabbits were made DM using alloxan. A 10-day wound-healing period was chosen since at least 80% wounds in non-DM mice and rabbits heal by that time-point. A dressing based on an alginate bandage for topical sustained release of Compound 1 was generated following the methods described in WO 2014/169250, and was then applied the shaved dorsum of DM mice either before (pre-wound) or after wounds (post-wound) were introduced. A comparison was made with the FDA-approved MC stabilizer, disodium cromoglycate (DSCG), 50 mg/kg DSCG (Intraperitoneal (ip) daily, 10 consecutive days prior to wounding) in non-DM and DM mice followed by wound procedure. Wound healing was monitored for 10 days.

[2] = tested on: macrophages in skin of DM mice; experiment: M1/M2 macrophages in intact skin of diabetic mice; assay type: in vivo
Text: as §1

CRAC channel = CRAC channel (Rattus norvegicus, UniProt Q5M848); experiment: Inhibition of thapsigargin-induced calcium influx (intracellular Ca2+, Fluo-4NW) in RBL-2H3 cells; assay type: cell-based, rodent; conditions: 1 μM thapsigargin, 60 min compound incubation
CRAC channel, sequence (Q5M848 whole entry): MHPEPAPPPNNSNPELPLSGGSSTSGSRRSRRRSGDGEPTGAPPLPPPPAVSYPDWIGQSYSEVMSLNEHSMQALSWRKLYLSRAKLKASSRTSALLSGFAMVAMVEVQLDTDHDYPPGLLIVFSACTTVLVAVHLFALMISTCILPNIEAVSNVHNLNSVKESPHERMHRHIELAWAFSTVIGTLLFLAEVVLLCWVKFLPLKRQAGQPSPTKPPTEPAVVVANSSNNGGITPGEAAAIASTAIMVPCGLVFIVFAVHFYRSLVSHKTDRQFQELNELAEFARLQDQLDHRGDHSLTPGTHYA
CRAC channel, sequence (P84903 23-685, further chain): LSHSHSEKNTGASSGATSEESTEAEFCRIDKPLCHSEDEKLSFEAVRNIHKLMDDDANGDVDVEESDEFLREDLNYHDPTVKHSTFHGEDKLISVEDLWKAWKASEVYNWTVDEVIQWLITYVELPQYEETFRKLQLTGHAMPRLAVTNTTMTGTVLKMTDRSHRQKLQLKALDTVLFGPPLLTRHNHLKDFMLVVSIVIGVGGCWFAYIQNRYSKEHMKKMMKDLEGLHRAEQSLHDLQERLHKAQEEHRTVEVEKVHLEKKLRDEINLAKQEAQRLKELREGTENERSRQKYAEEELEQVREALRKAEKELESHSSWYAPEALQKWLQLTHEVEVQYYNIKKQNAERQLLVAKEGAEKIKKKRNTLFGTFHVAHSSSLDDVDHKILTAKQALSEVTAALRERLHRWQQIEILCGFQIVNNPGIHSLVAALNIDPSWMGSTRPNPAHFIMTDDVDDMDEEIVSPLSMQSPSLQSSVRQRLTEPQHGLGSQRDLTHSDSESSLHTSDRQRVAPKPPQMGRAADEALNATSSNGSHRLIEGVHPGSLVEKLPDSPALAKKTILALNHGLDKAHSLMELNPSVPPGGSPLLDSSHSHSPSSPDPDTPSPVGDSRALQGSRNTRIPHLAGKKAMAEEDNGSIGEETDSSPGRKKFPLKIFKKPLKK
Method: RBL-2H3 cells (ATCC) were seeded in 96-well plate at 4×10^4 cells per well in DMEM-supplemented with 2% FBS and allowed to adhere overnight. Culture medium was then replaced with 50 μl of Ca^2+-free Tyrode solution to load Ca^2+-probe Fluo-4NW (Molecular Probe, Thermo Fisher, MA, USA) at 1:1 to the cells. New compound at indicated concentration was supplied during the probe loading from the beginning. Cells were incubated in the presence or absence of new compound for 60 minutes in the Ca^2+-free medium at 37° C. During the last 5 minutes of incubation, cells were treated with 1 μM thapsigargin (Sigma Aldrich) to deplete [Ca^2+]ER. 20 mM CaCl2 in saline solution was supplemented back to the [Ca^2+]ER-depleted cells to be 2 mM as final. Cell medium was removed 1 minute after Ca^2+ reloading, and changes in Fluo-4NW fluorescence (RFU) were recorded with the multi-mode plate reader (FilterMax F5, Molecular Devices/Thermo Fisher Scientific, MA, USA) at an excitation wavelength of 485 nm and an emission wavelength of 535 nm.
(§2) IC50 and EC50 were calculated by nonlinear regression using Prims Graphpad software. Statistical analysis was performed by one-way ANOVA and post-hoc test (Tukey's test).
Inhibitory activity of calcium influx by the described compounds was determined using the RBL-2H3 rodent MC cell line as the primary in vitro assay. […]

TNFα = TNFα protein secretion by activated RBL cells (ELISA); assay type: cell-based, rodent; conditions: secreted TNFα (pre-stored plus de novo) 4 hours after Ca2+ re-exposure
Method: (§3) [Ca^2+]ER in RBL2H3 cells were depleted by Tg in the same manner in the presence of the CRAC channel blockers as for [Ca^2+]i measurement but without loading the cells with Fluo-4NW. Then 200 μl of DMEM-3% FBS (containing 3 mM Ca^2+) was supplemented back in the presence of the corresponding concentration of CRAC channel blockers. Thirty minutes after Ca^2+-add back culture supernatant was collected for degranulation measurement. Degranulation was measured as secreted β-hexosaminidase according to the protocol of the assay kit (Sigma-Aldrich, MO, USA). Nuclear fraction was prepared from the cells for NFAT by using a subcellular protein fractionation kit (NE-PER™ Nuclear and Cytoplasmic Extraction Reagents, Pierce Biotechnology, Thermo Fisher Scientific, MA, USA). Nuclear NFAT-c1 was measured with an ELISA kit (Active Motif, CA, USA). At this time point TNFα was measured as pre-stored release with ELISA kits (R&D Systems, MN, USA). In a part after Ca^2+ add back incubation was prolonged for 4 h to measure de novo production of the cytokine TNFα.
as §2
Mast cells can secrete pre-stored TNFα immediately upon activation, as well as de novo synthesized TNFα that takes a few hours to produce. RBL cells were activated similarly as described above, in the presence of various concentrations of a CRAC channel blocker. 4 Hours after RBL cells were re-exposed to Ca^2+, secreted TNFα (which accounted for the combined protein from pre-stored and de novo synthesized TNFα) in the supernatants were measured by ELISA.

RBL-2H3 cells = experiment: Mast cell degranulation: β-hexosaminidase release from thapsigargin-activated RBL-2H3 cells; assay type: cell-based, rodent; conditions: 1 μM thapsigargin
Method: as §3
Compound 12 was used to determine the inhibition of MC degranulation by measuring the release of pre-stored β-hexosaminidase 03-hex) upon MC activation. […] 30 Minutes after assay media were replenished with extracellular Ca^2+, supernatants and cell lysates were analyzed for β-hex concentrations by ELISA.

NFAT-c1 = experiment: Nuclear translocation of NFAT in activated RBL cells (nuclear NFAT-c1 ELISA); assay type: cell-based, rodent
Method: as §3
The inhibition of nuclear translocation of the nuclear factor of activated T-cells (NFAT) by compound 12 in activated MCs was determined. […] Nuclear fraction was prepared from the cells by subcellular protein fractionation, and the nuclear NFAT-c1 content was measured by ELISA. […]

O=C(Nc1c(F)cccc1F)c1cn(Cc2ccc(Cl)cc2Cl)c2ccccc12 [Compound 1, 1-[(2,4-dichlorophenyl)methyl]-N-(2,6-difluorophenyl)indole-3-carboxamide]
wound healing ([1]; topical alginate dressing, 10 days pre-wounding or 10 days post-wounding, monitored 10 days): improved wound healing similar to systemic DSCG pre-treatment
number of M2 macrophages in skin ([2]; treatment for 10 days without any wound): increased the number of M2 macrophages

O=C(Nc1nn(Cc2ccc(Cl)cc2Cl)c2ccccc12)c1ccccc1F [Compound 3, N-[1-[(2,4-dichlorophenyl)methyl]indazol-3-yl]-2-fluoro-benzamide]
IC50 (CRAC channel): 29 µM

O=C(Nc1c(F)cccc1F)c1nn(Cc2ccc(Cl)cc2Cl)c2ccccc12 [Compound 7, 1-[(2,4-dichlorophenyl)methyl]-N-(2,6-difluorophenyl)indazole-3-carboxamide]
IC50 (TNFα): 0.47 µM

O=C(Nc1c(F)cccc1Cl)c1nn(Cc2ccc(Cl)cc2Cl)c2ccccc12 [Compound 8, N-(2-chloro-6-fluoro-phenyl)-1-[(2,4-dichlorophenyl)methyl]indazole-3-carboxamide]
IC50 (TNFα): 0.74 µM

O=C(Nc1ccncc1F)c1cn(Cc2ccc(Cl)cc2Cl)c2ccccc12 [Compound 11, 1[(2,4-dichlorophenyl)methyl]-N-(3-fluoro-4-pyridyl)indole-3-carboxamide]
IC50 (TNFα): 0.58 µM

O=C(Nc1nn(Cc2ccc(Cl)cc2Cl)c2ccccc12)c1ccncc1F [Compound 12, N-[1-[(2,4-dichlorophenyl)methyl]indazol-3-yl]-3-fluoro-pyridine-4-carboxamide]
inhibition of β-hex release at the highest concentration tested (RBL-2H3 cells; 40% of β-hex released without inhibitor): nearly complete inhibition of β-hex release
inhibition of β-hex release (RBL-2H3 cells; 30 min after Ca2+ add back, various concentrations): significantly and dose-dependently inhibited the release of β-hex; also recorded: dose-dependent inhibition
nuclear fraction of NFAT-c1 in activated RBL cells (NFAT-c1; 1 μM thapsigargin, 30 min after Ca2+ add back, various concentrations, 5-fold increase without blocker): significantly and dose-dependently reduced the nuclear fraction of NFAT-c1; also recorded: dose-dependent inhibition
levels of nuclear NFAT at 10 μM and higher concentrations (NFAT-c1; 10 μM and higher, activated RBL cells): restore the levels of nuclear NFAT to that of resting MCs
IC50 (TNFα): 0.28 µM

O=C(Nc1ccc(F)cc1F)c1nn(Cc2ccc(Cl)cc2Cl)c2ccccc12 [Compound 14, 1-[(2,4-dichlorophenyl)methyl]-N-(2,4-difluorophenyl)indazole-3-carboxamide]
IC50 (TNFα): 0.64 µM

O=C(Nc1c(F)cncc1F)c1nn(Cc2ccc(Cl)cc2Cl)c2ccccc12 [Compound 15, 1-[(2,4-dichlorophenyl)methyl]-N-(3,5-difluoro-4-pyridyl)indazole-3-carboxamide]
IC50 (TNFα): 0.14 µM

O=C([O-])c1cc(=O)c2c(OCC(O)COc3cccc4oc(C(=O)[O-])cc(=O)c34)cccc2o1.[Na+].[Na+] [DSCG, disodium cromoglycate, reference compound]
wound healing ([1]; 50 mg/kg ip daily, 10 consecutive days prior to wounding, p<0.05): improved diabetic mouse wound healing
M1/M2 ratio in intact skin ([2]; DSCG treatment): reduced M1/M2 ratio in intact skin
